Assays:
SAU 29213 = assay: MIC, broth microdilution (CLSI), substance alone or ATB combined with compound at 4 or 8 μg/mL; format: cell-based, S. aureus; conditions: for MIC ATB combined with compound: compound @4 μg/ml, SAU 29213
In short: (§1)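 Per CLSI-M7-A7, MICs are determined in cation-adjusted Mueller-Hinton broth with a final inoculum of 5·10^5 CFU/mL. Plates incubate 16-20 h at 35° C in air and are read by eye. Fosfomycin assays carry 25 μg/ml glucose-6-phosphate.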

KPN BAA-1898 = assay: as above; format: cell-based, K. pneumoniae; conditions: Klebsiella pneumoniae, BAA1898; substance alone; KPN BAA-1898; read-out: MIC
In short: as §1

KPN UFR42 = assay: as above; format: cell-based, K. pneumoniae; conditions: Klebsiella pneumoniae; substance alone; KPN UFR42; read-out: MIC
In short: as §1

ECO UFR39 = assay: as above; format: cell-based, E. coli; conditions: Escherichia coli; substance alone; ECO UFR39; read-out: MIC
In short: as §1

ECO 190317 [1] = assay: as above; format: cell-based, E. coli; conditions: Escherichia coli; substance alone; ECO 190317; read-out: MIC
In short: as §1

SPN 49619 = assay: as above; format: cell-based, S. pneumoniae; conditions: SPN 49619; for MIC ATB combined with compound: compound @4 μg/ml
In short: as §1

ECL P99 [2] = assay: as above; format: cell-based, E. cloacae; conditions: Enterobacter cloacae; substance alone; ECL P99; read-out: MIC
In short: as §1

KPN UFR68 = assay: Fractional Inhibitory Concentration Index, checkerboard assay; format: cell-based, K. pneumoniae
Method: (§2) Method 2: Determination of the Fractional Inhibitory Concentration Index
(§3) Serial 2-fold dilutions of each antibiotic tested were prepared in ca-MHB and mixed in each well of a 96-well microtiter plate so that each row (and column) contained a fixed amount of one agent and increasing amounts of the second agent. The range of drug concentrations used in the checkerboard analysis was such that the dilution range encompassed the MIC for each drug used in the analysis. Broth microdilution plates were inoculated with each strain (Table 3) to yield 5.10^5 CFU/mL in a 100 μL final volume and incubated for 18 h at 35° C. in ambient air. Assays including Fosfomycin were supplemented with 25 μg/ml of Glucose-6-phosphate. MICs were determined after overnight incubation, and the fractional inhibitory concentration (FIC) index was calculated for each well. The FIC index (FICI) was calculated for each combination according to the equation FICI=FICa+FICb=(MIC of drug A in combination/MIC of drug A alone)+(MIC of drug B in combination/MIC of drug B alone). The FICI was interpreted as follows: synergy, FICI […]; indifference, 0.5<FIC<4; and antagonism, FICI>4. The checkerboard assays were performed in duplicate.

ECO 190317 [3] = assay: as above; format: cell-based, E. coli
Method: as §2, §3

PAE UFR48 [4] = assay: MIC, broth microdilution (CLSI), substance alone or ATB combined with compound at 4 or 8 μg/mL; format: cell-based, P. aeruginosa; conditions: PAE UFR48; for MIC ATB combined with compound: compound @4 μg/ml
In short: as §1

PAE UFR90 [5] = assay: as above; format: cell-based, P. aeruginosa; conditions: PAE UFR90; for MIC ATB combined with compound: compound @4 μg/ml
In short: as §1

PAE 105250 = assay: as above; format: cell-based, P. aeruginosa; conditions: PAE 105250; for MIC ATB combined with compound: compound @4 μg/ml
In short: as §1

PAE UFR48 [6] = assay: Fractional Inhibitory Concentration Index, checkerboard assay; format: cell-based, P. aeruginosa
Method: as §2, §3

PAE UFR90 [7] = assay: as above; format: cell-based, P. aeruginosa
Method: as §2, §3

ECL P99 [8] = assay: as above; format: cell-based, E. cloacae
Method: as §2, §3

[9] = Pseudomonas aeruginosa, substance alone, read-out: MIC

With NC[C@@H]1C(c2ncco2)=C[C@@H]2CN1C(=O)N2OS(=O)(=O)[O-].O=C(O)C(F)(F)F.[Na+] [Example 5, Sodium and 2,2,2-trifluoroacetate [(2S,5R)-2-(azaniumylmethyl)-7-oxo-3-oxazol-2-yl-1,6-diazabicyclo[3.2.1]oct-3-en-6-yl] Sulfate] the “MIC ATB combined with compound” value (SAU 29213; ATB ATM) was over 32 µg/mL, the “MIC ATB combined with compound” value (SAU 29213; ATB FEP) was 2 µg/mL and the “MIC ATB combined with compound” value (SAU 29213; ATB FOS) was 0.5 µg/mL. The “MIC ATB combined with compound” value (SAU 29213; ATB MEM) was “<=0.031 μg/mL”, the “MIC ATB combined with compound” value (SAU 29213; ATB PIP) was 2 µg/mL and the MIC (SAU 29213; Staphylococcus aureus, substance alone, SAU 29213 (MSSA 29213), read-out: MIC) was over 32 µg/mL. It also gave an MIC (KPN BAA-1898) of 16 µg/mL, an MIC (KPN UFR42) of 32 µg/mL and an MIC (ECO UFR39) of at most 0.016 µg/mL. For the same molecule, the MIC (ECO 190317 [1]) was at most 0.016 µg/mL, the “MIC ATB combined with compound” value (SPN 49619; ATB ATM) was over 32 µg/mL and the “MIC ATB combined with compound” value (SPN 49619; ATB FEP) was 0.063 µg/mL. For the same molecule, the “MIC ATB combined with compound” value (SPN 49619; ATB FOS) was 16 µg/mL, the “MIC ATB combined with compound” value (SPN 49619; ATB MEM) was 0.063 µg/mL and the “MIC ATB combined with compound” value (SPN 49619; ATB PIP) was 0.5 µg/mL. It also gave an MIC (SPN 49619; Streptococcus pneumoniae, substance alone, read-out: MIC) of over 32 µg/mL, an MIC (ECL P99 [2]) of at most 0.016 µg/mL and an FIC index min (KPN UFR68; compound +ATM) of at most 0.008. The FIC index min (KPN UFR68; compound +FEP) was at most 0.0098, the FIC index min (KPN UFR68; compound +FOS) was 0.203 and the FIC index min (KPN UFR68; compound +MEM) was 0.020. It also gave an FIC index min (KPN UFR68; compound +PIP) of at most 0.035, an FIC index min (ECO 190317 [3]; compound +ATM) of 0.52 and an FIC index min (ECO 190317 [3]; compound +FEP) of 0.25. For the same molecule, the FIC index min (ECO 190317 [3]; compound +FOS) was 0.66, the FIC index min (ECO 190317 [3]; compound +MEM) was 0.76 and the FIC index min (ECO 190317 [3]; compound +PIP) was at most 0.56. For the same molecule, the “MIC ATB combined with compound” value (PAE UFR48 [4]; ATB ATM) was under 0.031 µg/mL, the “MIC ATB combined with compound” value (PAE UFR48 [4]; ATB FEP) was under 0.031 µg/mL and the “MIC ATB combined with compound” value (PAE UFR48 [4]; ATB FOS) was 4 µg/mL. The “MIC ATB combined with compound” value (PAE UFR48 [4]; ATB MEM) was under 0.031 µg/mL, the “MIC ATB combined with compound” value (PAE UFR48 [4]; ATB PIP) was under 0.031 µg/mL and the MIC (PAE UFR48 [4]; [9]) was 2 µg/mL. For the same molecule, the “MIC ATB combined with compound” value (PAE UFR90 [5]; ATB ATM) was under 0.031 µg/mL, the “MIC ATB combined with compound” value (PAE UFR90 [5]; ATB FEP) was under 0.031 µg/mL and the “MIC ATB combined with compound” value (PAE UFR90 [5]; ATB FOS) was under 0.125 µg/mL. The “MIC ATB combined with compound” value (PAE UFR90 [5]; ATB MEM) was under 0.031 µg/mL, the “MIC ATB combined with compound” value (PAE UFR90 [5]; ATB PIP) was under 0.031 µg/mL and the MIC (PAE UFR90 [5]; [9]) was 0.25 µg/mL. The “MIC ATB combined with compound” value (PAE 105250; ATB ATM) was under 0.031 µg/mL, the “MIC ATB combined with compound” value (PAE 105250; ATB FEP) was under 0.031 µg/mL and the “MIC ATB combined with compound” value (PAE 105250; ATB FOS) was 16 µg/mL. The “MIC ATB combined with compound” value (PAE 105250; ATB MEM) was under 0.031 µg/mL, the “MIC ATB combined with compound” value (PAE 105250; ATB PIP) was under 0.031 µg/mL and the MIC (PAE 105250; [9]) was 4 µg/mL. For the same molecule, the FIC index min (PAE UFR48 [6]; compound +ATM) was 0.34, the FIC index min (PAE UFR48 [6]; compound +FEP) was 0.33 and the FIC index min (PAE UFR48 [6]; compound +FOS) was 0.88. The FIC index min (PAE UFR48 [6]; compound +MEM) was 0.63, the FIC index min (PAE UFR48 [6]; compound +PIP) was 0.52 and the FIC index min (PAE UFR90 [7]; compound +ATM) was 0.76. For the same molecule, the FIC index min (PAE UFR90 [7]; compound +FEP) was 0.69, the FIC index min (PAE UFR90 [7]; compound +FOS) was 0.69 and the FIC index min (PAE UFR90 [7]; compound +MEM) was 0.81. For the same molecule, the FIC index min (PAE UFR90 [7]; compound +PIP) was 0.56, the FIC index min (ECL P99 [8]; compound +ATM) was 0.23 and the FIC index min (ECL P99 [8]; compound +FEP) was 0.23. For the same molecule, the FIC index min (ECL P99 [8]; compound +FOS) was 0.16, the FIC index min (ECL P99 [8]; compound +MEM) was 0.63 and the FIC index min (ECL P99 [8]; compound +PIP) was 0.32.

Source: patent US20200024278A1, “COMPOSITION COMPRISING ANTIBIOTIC COMPOUND AND AN HETEROCYCLIC COMPOUND AND THEIR USE IN PREVENTING OR TREATING BACTERIAL INFECTIONS” (MUTABILIS, priority 2016, published 2020)
